Laboratory results from patent US9624182B2, “Compounds as lysophosphatidic acid receptor antagonists” (Amira Pharmaceuticals, Inc., priority 2009, dated 2017).

Biological target: T1, human LPA1 (Homo sapiens, UniProt Q92633)
T1 construct: the full-length cDNA for human LPA1 was obtained by PCR of the reverse transcription reaction; expressed in transfected cells
Assay: LPA1 calcium flux assay
Assay type: cell-based
Settings: CHO cells expressing human LPA1, stimulated with 10 nM LPA; read-out: HLPA1 Ca Flux IC50
Description: A 1.1 kb cDNA encoding the human LPA1 receptor was cloned from human lung. Human lung RNA (Clontech Laboratories, Inc. USA) was reverse transcribed using the RETROscript kit (Ambion, Inc.) and the full-length cDNA for human LPA1 was obtained by PCR of the reverse transcription reaction. The nucleotide sequence of the cloned human LPA1 was determined by sequencing and confirmed to be identical to the published human LPA1 sequence (An et al. Biochenm. Biophys. Res. Commun. 231:619 (1997). The cDNA was cloned into the pCDNA5/FRT expression plasmid and transfected in CHO cells using lipofectamine 2000 (Invitrogen Corp., USA). Clones stably expressing human LPA1 were selected using hygromycin and identified as cells that show Ca-influx in response to LPA.
Human LPA1 or LPA3 expressing CHO cells are seeded at 20,000-45,000 cells per well in a 96-well poly-D-lysine coated plate one or two days before the assay. Prior to the assay, the cells are washed once with PBS and then cultured in serum-free media overnight. On the day of the assay, a calcium indicator dye (Calcium 4, Molecular Devices) in assay buffer (HBSS with Ca^2+ and Mg^2+ and containing 20 mM Hepes and 0.3% fatty-acid free human serum albumin) is added to each well and incubation continued for 1 hour at 37° C. 10 μl of test compounds in 2.5% DMSO are added to the cells and incubation continued at room temperature for 30 minutes. Cells are the stimulated by the addition of 10 nM LPA and intracellular Ca^2+ measured using the Flexstation 3 (Molecular Devices). IC50s are determined using Graphpad prism analysis of drug titration curves.

T1 sequence (Q92633 whole entry): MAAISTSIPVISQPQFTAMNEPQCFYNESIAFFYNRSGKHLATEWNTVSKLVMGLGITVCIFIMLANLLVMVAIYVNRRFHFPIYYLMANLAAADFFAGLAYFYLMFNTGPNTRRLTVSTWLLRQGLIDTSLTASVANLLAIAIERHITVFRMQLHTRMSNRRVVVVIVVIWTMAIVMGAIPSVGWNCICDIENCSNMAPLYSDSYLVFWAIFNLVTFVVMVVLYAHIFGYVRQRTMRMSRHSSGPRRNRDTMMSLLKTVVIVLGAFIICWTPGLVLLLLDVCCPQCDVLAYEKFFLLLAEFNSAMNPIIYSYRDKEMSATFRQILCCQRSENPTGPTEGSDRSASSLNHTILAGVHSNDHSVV

IC50 | Compound
< 300 nM | Cc1noc(-c2ccc(-c3ccc(CC(=O)O)cc3)cc2)c1NC(C)CCc1cccc(Cl)c1 (centres unmarked) [Compound 1-182, (4′-{4-[3-(3-Chloro-phenyl)-1-methyl-propylamino]-3-methyl-isoxazol-5-yl}-biphenyl-4-yl)-acetic acid]
< 300 nM | Cc1noc(-c2ccc(-c3ccc(CCC(=O)O)cc3)cc2)c1CSCCc1ccccc1 [Compound 1-191, 3-[4′-(3-Methyl-4-phenethylsulfanylmethyl-isoxazol-5-yl)-biphenyl-4-yl]-propionic acid]
< 300 nM | Cc1onc(-c2ccc(-c3ccc(C4(CC(=O)O)CC4)cc3)cc2)c1CSCCc1ccccc1 [Compound 1-306, {1-[4′-(5-Methyl-4-phenethylsulfanylmethyl-isoxazol-3-yl)-biphenyl-4-yl]-cyclopropyl}-acetic acid]
< 300 nM | Cc1noc(-c2ccc(-c3ccc(C4CC4C(=O)O)cc3)cc2)c1[C@H](O)COCc1ccccc1 (single isomer, unassigned) [Compound 1-217]
300 to 1000 nM | Cc1noc(-c2ccc(-c3ccc(C4(C(=O)O)CC4)cc3)cc2)c1NC(=O)c1cccc(Br)c1 [Compound 1-292, 1-{4′-[4-(3-Bromo-benzoylamino)-3-methyl-isoxazol-5-yl]-biphenyl-4-yl}-cyclopropanecarboxylic acid]
< 300 nM | Cc1noc(-c2ccc(-c3ccc(C4(C(=O)O)CC4)cc3)cc2)c1NC1CCc2ccccc2C1 (centres unmarked) [Compound 1-270, 1-{4′-[3-Methyl-4-(1,2,3,4-tetrahydro-naphthalen-2-ylamino)-isoxazol-5-yl]-biphenyl-4-yl}-cyclopropanecarboxylic acid]
< 300 nM | Cc1noc(-c2ccc(-c3ccc(CC4(C(=O)O)CC4)cc3)cc2)c1C(O)CCCc1ccccc1 (centres unmarked) [Compound 1-250, 1-{4′-[4-(1-Hydroxy-4-phenyl-butyl)-3-methyl-isoxazol-5-yl]-biphenyl-4-ylmethyl}-cyclopropanecarboxylic acid]

Second part, the compound before the results:

Compound | IC50
CC(=O)N(Cc1ccccc1)CC(O)Cc1c(C)noc1-c1ccc(-c2ccc(C3(C(=O)O)CC3)cc2)cc1 (centres unmarked) [Compound 1-138, 1-(4′-{4-[3-(Acetyl-benzyl-amino)-2-hydroxy-propyl]-3-methyl-isoxazol-5-yl}-biphenyl-4-yl)-cyclopropanecarboxylic acid] | 1000 to 50000 nM
Cc1noc(-c2ccc(-c3cccc(C(=O)O)c3)cc2)c1NC(=O)NCc1ccccc1 [Compound 1-2, 4′-[4-(3-Benzyl-ureido)-3-methyl-isoxazol-5-yl]-biphenyl-3-carboxylic acid] | 1000 to 50000 nM
Cc1noc(-c2ccc(-c3ccc(C4(C(=O)O)CC4)cc3)cc2)c1/C=C/CC(C)c1ccccc1 (centres unmarked) [Compound 1-113, 1-{4′-[3-Methyl-4-((E)-4-phenyl-pent-1-enyl)-isoxazol-5-yl]-biphenyl-4-yl}-cyclopropanecarboxylic acid] | 1000 to 50000 nM
C=CCCC(C)Nc1c(C)noc1-c1ccc(-c2ccccc2CC(=O)O)cc1 (centres unmarked) [Compound 1-228, {4′-[3-Methyl-4-(1-methyl-pent-4-enylamino)-isoxazol-5-yl]-biphenyl-2-yl}-acetic acid] | 1000 to 50000 nM
COc1cccc(Nc2c(C)noc2-c2ccc(-c3ccc(C4(C(=O)O)CC4)cc3)cc2)n1 [Compound 1-304, 1-{4′-[4-(6-Methoxy-pyridin-2-ylamino)-3-methyl-isoxazol-5-yl]-biphenyl-4-yl}-cyclopropanecarboxylic acid] | < 300 nM
Cc1noc(-c2ccc(-c3ccccc3C3(C(=O)O)CC3)cc2)c1/C=C/CCc1ccccc1 [Compound 1-63, 1-{4′-[3-Methyl-4-((E)-4-phenyl-but-1-enyl)-isoxazol-5-yl]-biphenyl-2-yl}-cyclopropanecarboxylic acid] | 1000 to 50000 nM
Cc1noc(-c2ccc(-c3ccc(CC(=O)O)cc3)cc2)c1[C@H](O)CSCc1ccccc1 [Compound 1-272, {4′-[4-((S)-2-Benzylsulfanyl-1-hydroxy-ethyl)-3-methyl-isoxazol-5-yl]-biphenyl-4-yl}-acetic acid] | < 300 nM
